Experimental data from US12605323B2, “Composition for inhibiting hair graying, and use thereof” (LG HOUSEHOLD & HEALTH CARE LTD., priority 2020, dated 2026).
Where no end group is shown, it is not given here.

Legend:
[1] = tested on: B-16 mouse melanoma cells; test: Determination of effect of producing melanin; assay type: cell-based; settings: B-16 melanoma cells; for Melanin synthesis (%): non-treated control = 100%
Procedure: In this test, the compounds in Test Example 1 showing an effect of enhancing the Wnt signaling were added to the culture medium of mouse-derived melanoma cells (B-16 mouse melanoma cells) to determine the effect of producing melanin in a cellular level (Lotan R., Lotan D. Cancer Res. 40: 3345-3350, 1980). Before the test, B-16 melanoma cells were evaluated in terms of toxicity, and the non-toxic concentration was selected to carry out evaluation of melanin production. B-16 melanoma cells were subcultured in DMEM (Gibco BRL., Gaithersburg, MD, USA) containing 10% FBS. Then, seeding to a 100 mm cell culture dish was performed to synthesize and extract melanin, and the cells were treated with each compound when the confluency was 70%. The compound was used for treating the cell culture at a concentration of 10 μg/mL. In addition, α-melanocyte stimulating hormone (α-MSH) was used as control, added to the culture medium to 10 nM to treat B-16 melanoma cells, and cultured for 48 hours. Then, the cells were treated with trypsin to strip them off the culture container, and centrifugal separation was carried out to extract melanin. After that, 1 mL of sodium hydroxide (1 N concentration) solution was added to the stripped cells and the mixture was boiled for 10 minutes so that melanin may be dissolved. The amount of melanin production was determined by measuring the absorbance at 400 nm by using a spectrophotometer. The amount of melanin was quantified in the unit of μg/mL by using a standard absorbance curve as a function of melanin concentration. The value of the non-treated control was taken as 100%, and the values of the test group were calculated as a percentage (%) on the basis thereof (Table 2).

[2] = tested on: Wnt/β-catenin signaling pathway (TCF/LEF Responsive Luciferase Reporter HEK293A cell line); test: Effect of enhancing Wnt/β-catenin signaling, TCF/LEF responsive luciferase reporter assay; assay type: cell-based; settings: 10 μg/mL, 24 hours, WRHEK293A cells, non-treated control = 100%
Procedure: To determine activation of the Wnt/β-catenin signaling pathway, TCF/LEF Responsive Luciferase Reporter HEK293A stabilized cell line (Wnt Reporter HEK293A cell; WRHEK293A) was used in this test. The stabilized cell line was maintained through the subculture using MEM (Corning, USA) and fetal bovine serum (Gibco BRL, Gaithersburg, MD, USA). To carry out a transcriptional activity test, 30,000 cells were seeded per well in a 96-well plate and cultured in an incubator at 37° C. for 24 hours. Then, according to the present disclosure, treatment with each of escin, 27-deoxyactein, lysionotin, nitidine chloride, lanosterol, engeletin, specnuezhenide, praeruptorin B, rotundic acid, sesamoside, polygalacin D, momordin Ic, valechlorine, tussilagone, periplocin, polyphyllin VII and platycodin D2 was carried out as shown in the following Table 1. After culturing for 24 hours, a luciferase assay system (Promega) was used to perform reporter analysis. The analysis was carried out by the test method provided by the production company, and luminescence was determined by using Victor multiwall plate reader (PerkinElmer, USA). To determine cytotoxicity caused by the treatment, development of fluorescence of GFP as an internal control was determined. The luminescence value derived from the reaction with luciferase was divided by the GFP fluorescence value, and the values of the test group were calculated by taking the value of the non-treated control as 100% and expressed in the unit of percentage (%) (Table 1).

| Compound | Melanin synthesis (%) ([1]; 10 nM, 48 hours) | Wnt signaling activation capability (%) (Luminescence/GFP) [2] | Melanin synthesis (%) ([1]; 10 μg/mL) | melanin synthesis (FIG. 1) [1] |
| --- | --- | --- | --- | --- |
| α-melanocyte stimulating hormone (SYSMEHFRWGKPV; ends and bridges not checked; UniProt P01189 138-150, looked up) [α-MSH, α-melanocyte stimulating hormone used as control at 10 nM, reference compound] | 135 |  |  |  |
| C[C@@H]1O[C@@H](O[C@H]2[C@H](OC(=O)[C@]34CCC(C)(C)C[C@H]3C3=CC[C@@H]5[C@@]6(C)C[C@H](O)[C@H](O[C@@H]7O[C@H](CO)[C@@H](O)[C@H](O[C@@H]8O[C@H](CO)[C@@H](O)[C@H](O)[C@H]8O)[C@H]7O)C(CO)(CO)[C@@H]6CC[C@@]5(C)[C@]3(C)C[C@H]4O)OC[C@H](O)[C@@H]2O)[C@H](O)[C@H](O)[C@H]1O[C@@H]1OC[C@@H](O)[C@H](O[C@@H]2OC[C@](O)(CO)[C@H]2O)[C@H]1O [Platycodin D2, platycodin D2] |  | 216 | 119 |  |
| CC(=O)O[C@@H]1C[C@@]23C[C@@]24CC[C@H](O[C@@H]2OC[C@@H](O)[C@H](O)[C@H]2O)C(C)(C)[C@@H]4CC[C@H]3[C@]2(C)C[C@@H]3O[C@]4(C[C@@H](C)[C@@H]3[C@@]12C)OC[C@@]1(C)O[C@@H]41 [27-Deoxyactein, 27-deoxyactein] |  | 1717 | 168 |  |
| polyphyllin VII |  | 275 | 127 |  |
| C[C@@H]1O[C@@H](O[C@H]2[C@H](OC(=O)[C@]34CCC(C)(C)C[C@H]3C3=CC[C@@H]5[C@@]6(C)C[C@H](O)[C@H](O[C@@H]7O[C@H](CO)[C@@H](O)[C@H](O)[C@H]7O)[C@@](C)(CO)[C@@H]6CC[C@@]5(C)[C@]3(C)C[C@H]4O)OC[C@H](O)[C@@H]2O)[C@H](O)[C@H](O)[C@H]1O[C@@H]1OC[C@@H](O)[C@H](O[C@@H]2OC[C@](O)(CO)[C@H]2O)[C@H]1O [Polygalacin D, polygalacin D] |  | 292 | 114 |  |
| C=C1[C@H](OC(=O)/C=C(\C)CC)C[C@@H](C(C)C)[C@@H]2[C@@H]([C@@H](C)OC(C)=O)C(=O)C[C@@H]12 [Tussilagone, tussilagone] |  | 195 | 136 |  |
| COC(=O)C1=CO[C@@H](O[C@@H]2O[C@H](CO)[C@@H](O)[C@H](O)[C@H]2O)[C@@H]2[C@@]3(C)O[C@H]3[C@@H](O)[C@]12O [Sesamoside, sesamoside] |  | 275 | 112 |  |
| valechlorine |  | 218 | 139 |  |
| COc1cc2c[n+](C)c3c4cc5c(cc4ccc3c2cc1OC)OCO5 [Nitidine chloride, nitidine chloride] |  | 274 | 125 |  |
| CC1(C)CC[C@]2(C(=O)O)CC[C@]3(C)C(=CC[C@@H]4[C@@]5(C)CC[C@H](O[C@@H]6O[C@H](C(=O)O)[C@@H](O)[C@H](O[C@@H]7OC[C@@H](O)[C@H](O)[C@H]7O)[C@H]6O)C(C)(C)[C@@H]5CC[C@]43C)[C@@H]2C1 [Momordin Ic, momordin Ic] |  | 370 | 131 |  |
| CC=C1[C@H](O[C@@H]2O[C@H](CO)[C@@H](O)[C@H](O)[C@H]2O)OC=C(C(=O)OC)[C@H]1CC(=O)OC[C@H]1O[C@@H](OCCc2ccc(O)cc2)[C@H](O)[C@@H](O)[C@@H]1O (stereo in doubt) [Specnuezhenide, specnuezhenide] |  | 243 | 106 |  |
| COc1ccc(-c2cc(=O)c3c(O)c(OC)c(O)c(OC)c3o2)cc1 [Lysionotin, lysionotin] |  | 196 | 135 |  |
| C/C=C(/C)C(=O)O[C@H]1c2c(ccc3ccc(=O)oc23)OC(C)(C)[C@H]1OC(=O)/C(C)=C\C [Praeruptorin B, praeruptorin B] |  | 241 | 136 |  |
| escin |  | 1098 | 154 | increase in melanin synthesis |
| C[C@@H]1CC[C@]2(C(=O)O)CC[C@]3(C)C(=CC[C@@H]4[C@@]5(C)CC[C@H](O)[C@@](C)(CO)[C@@H]5CC[C@]43C)[C@@H]2[C@]1(C)O [Rotunic acid, rotundic acid] |  | 296 | 144 |  |
| CC1OC(OC2C(=O)c3c(O)cc(O)cc3OC2c2ccc(O)cc2)C(O)C(O)C1O (stereo not drawn) [Engeletin, engeletin] |  | 223 | 121 |  |
| CC(C)=CCC[C@@H](C)[C@H]1CC[C@@]2(C)C3=C(CC[C@]12C)[C@@]1(C)CC[C@H](O)C(C)(C)[C@@H]1CC3 [Lanosterol, lanosterol] |  | 194 | 110 |  |
| CO[C@H]1C[C@H](O[C@H]2CC[C@]3(C)[C@H]4CC[C@]5(C)[C@@H](C6=CC(=O)OC6)CC[C@]5(O)[C@@H]4CC[C@]3(O)C2)O[C@H](C)[C@H]1O[C@@H]1O[C@H](CO)[C@@H](O)[C@H](O)[C@H]1O [Periplocin, periplocin] |  | 244 | 128 |  |
